# Biological target: T1, human MR (Homo sapiens, UniProt P08235)
# T1 construct: The full length human MR gene is cloned from a human kidney or human brain cDNA library; made in house; host or cells: SF9 insect cells (baculovirus)
# T1 sequence (P08235 1-984): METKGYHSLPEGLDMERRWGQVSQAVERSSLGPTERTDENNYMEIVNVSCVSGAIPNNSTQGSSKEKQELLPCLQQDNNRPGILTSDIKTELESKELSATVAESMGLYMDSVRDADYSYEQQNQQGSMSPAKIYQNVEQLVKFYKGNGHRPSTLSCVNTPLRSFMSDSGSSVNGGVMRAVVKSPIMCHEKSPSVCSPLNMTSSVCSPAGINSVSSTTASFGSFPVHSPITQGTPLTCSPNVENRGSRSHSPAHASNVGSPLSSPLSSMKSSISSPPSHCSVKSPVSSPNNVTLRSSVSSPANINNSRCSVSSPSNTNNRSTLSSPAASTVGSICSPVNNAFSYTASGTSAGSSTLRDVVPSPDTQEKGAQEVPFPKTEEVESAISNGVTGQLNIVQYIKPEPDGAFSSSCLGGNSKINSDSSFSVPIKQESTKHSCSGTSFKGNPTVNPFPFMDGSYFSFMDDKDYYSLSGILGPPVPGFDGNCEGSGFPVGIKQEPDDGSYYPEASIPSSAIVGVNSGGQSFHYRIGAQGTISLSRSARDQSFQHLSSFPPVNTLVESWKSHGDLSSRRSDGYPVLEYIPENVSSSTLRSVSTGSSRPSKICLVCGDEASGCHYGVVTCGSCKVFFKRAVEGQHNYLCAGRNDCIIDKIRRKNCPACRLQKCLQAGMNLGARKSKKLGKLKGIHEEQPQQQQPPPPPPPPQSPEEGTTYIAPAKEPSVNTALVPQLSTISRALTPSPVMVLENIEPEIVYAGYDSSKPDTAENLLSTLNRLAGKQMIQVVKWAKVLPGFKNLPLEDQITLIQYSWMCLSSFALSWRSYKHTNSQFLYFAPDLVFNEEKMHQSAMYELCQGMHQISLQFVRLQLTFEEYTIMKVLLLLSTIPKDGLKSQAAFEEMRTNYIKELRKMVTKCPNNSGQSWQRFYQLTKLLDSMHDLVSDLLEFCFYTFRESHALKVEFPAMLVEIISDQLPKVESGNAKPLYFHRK
# Test: Mineralocorticoid Receptor Binding Assay (Method 1)
# Settings: [3H]-aldosterone
# Method: The full length human MR gene is cloned from a human kidney or human brain cDNA library. Briefly, using synthetic oligonucleotide primers (Eli Lilly and Company, Indianapolis) directed to nucleotides 20-54 and 3700-3666 of the human MR, polymerase chain reaction (PCR) is performed under standard conditions using a human cDNA library. The PCR reaction is performed in a final volume of 50 μl containing about 1 μl of a 50× stock solution of polymerase; about 1 μl of a 50× stock solution of DNTP; about 5 μl of an appropriate PCR buffer; about 1 μl of each primer; about 5 μl of a H. kidney or H. brain cDNA library; and about 36 μl of water. The reaction is allowed to denature for about 30 seconds at 95 degrees Celsius, anneal for about 30 seconds at 55 degrees Celsius, and extend for about 5 minutes at 72 degrees Celsius, the sequence being repeated for a total of about 35 cycles. The desired PCR product (3.68 Kb) is confirmed by gel electrophoresis and subsequently cut from the gel and stored at about −20 degrees Celsius until extraction. To extract the cDNA product from the agarose gel, the QIAEX II Gel Extraction protocol (QIAGEN, Inc.) is employed according to the manufacturer's instructions. Following extraction, the MR cDNA is cloned into an appropriate cloning vector (Zero Blunt TOPO PCR Cloning Kit (Invitrogen, Inc.) and a pAcHLT-baculovirus transfer vector (B.D./Pharminogen), then expressed in SF9 insect cells, essentially according to manufacturer's instructions. Sf9 cells are grown at a scale where gram quantity cell pellets are obtained for subsequent use in the MR binding assay. Harvested cell pellets are lysed by repeated freeze-thaw cycles (about 4) in a suitable lysis buffer then centrifuged at about 1×10^3 G (with the supernatant being saved for future assays).
# MR binding assays are performed in a final total volume of about 250 μl containing about 20-25 μg of protein and 0.5 nM of [^3H]-aldosterone plus varying concentrations of test compound or vehicle. The assay binding buffer consists of 30 mM sodium molybdate, 30 mM of TRIS-HCl, 5 mM sodium phosphate, 5 mM sodium pyrophosphate, and about 10% glycerol, pH=7.5.
# Briefly, assays are prepared at RT in 96-well Falcon 3072 plates, each well containing 210 μl of binding buffer, 10 μl of [^3H]-aldosterone, 10 μl of test compound/vehicle, and 20 μl of the resuspended receptor protein extract. Incubations are carried out at 4 degrees Celsius with shaking for about 16 hours. 200 μl aliquots of each incubation are filtered onto Millipore HA 0.45 micron 96-well filter plates, pre-moistened with cold 30 mM TRIS-HCl. The filter plates are suctioned dry with vacuum and immediately washed 3× with cold 30 mM TRIS-HCl. The plates are then punched out and the amount of receptor-ligand complex is determined by liquid scintillation counting using 4 ml of Ready Protein Plus™ liquid scintillation cocktail.
row,SMILES,Ki [nM]
1,CCN1CC[C@H](n2c(=O)[nH]c3cc(/C=C4/c5ccc(F)cc5OCc5c(F)cccc54)ccc32)C1 [Example 44],< 500
2,CN1CC[C@H](n2c(=O)[nH]c3cc(/C=C4/c5ccc(F)cc5OCc5c(F)cccc54)ccc32)C1 [Example 45],< 500
3,CCN1CC[C@@H](n2c(=O)[nH]c3cc(/C=C4/c5ccc(F)cc5OCc5c(F)cccc54)ccc32)C1 [Example 46],< 500
